33 compounds from patent US20260216198A1, “GPR35 MODULATORS” (ThirtyFiveBio Limited, priority 2023, published 2026) can be followed below.

A value given as a limit tells only on which side of the number the result lay.

T1 sequence (Q9HC97 whole entry): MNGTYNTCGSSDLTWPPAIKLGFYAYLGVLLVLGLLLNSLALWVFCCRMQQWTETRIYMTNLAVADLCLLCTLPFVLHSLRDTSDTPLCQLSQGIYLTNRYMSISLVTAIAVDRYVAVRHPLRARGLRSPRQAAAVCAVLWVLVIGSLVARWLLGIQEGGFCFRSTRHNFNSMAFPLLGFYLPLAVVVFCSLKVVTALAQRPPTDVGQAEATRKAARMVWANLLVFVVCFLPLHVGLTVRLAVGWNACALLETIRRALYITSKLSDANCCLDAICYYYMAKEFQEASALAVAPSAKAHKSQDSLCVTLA

The test addresses T1, GPR35 (Homo sapiens, UniProt Q9HC97).
T1 construct: expressed in transfected cells; host or cells: CHO-K1 cells co-expressing mitochondrial aequorin and Gα16
The test can be described thus: cellular GPR35 phospho-ERK HTRF assay (inhibition of lodoxamide-induced phospho-ERK signal). It is filed as cell-based. The note with it: GPR35-CHO-K1-mt aequorin-Gα16 cell line; agonist lodoxamide at EC80; read-out: Activity Group (IC50, inhibition of GPR35 agonist-induced phospho-ERK signal). An excerpt:
The functional GPR35 assay as described in the accompanying examples measures the ability of GPR35 modulators to inhibit a GPR35 agonist-induced phospho-ERK signal. This is expressed as the concentration of modulator required to reduce the phospho-ERK signal by 50 percent, i.e. the IC50; the signal window being defined as the difference between agonist plus modulator vehicle (no modulator) and agonist vehicle (no agonist) controls.
The functional assay described measures the ability of GPR35 modulators to inhibit a GPR35 agonist-induced phospho-ERK signal. This is expressed as the concentration of modulator required to reduce the phospho-ERK signal by 50 percent, i.e. the IC50; the signal window being defined as the difference between agonist plus modulator vehicle (no modulator) and agonist vehicle (no agonist) controls.
This assay is a cellular GPR35 phospho-ERK homogeneous time resolved fluorescence (HTRF) assay using the GPR35-CHO-K1-mt aequorin-Gα16 cell line. Upon activation of GPR35 with the agonist lodoxamide at EC80 concentration, ERK 1/2 is phosphorylated, and after lysis of the cell membrane, phospho-ERK1/2 (Thr202/Tyr204) is detected in a sandwich assay using two different specific antibodies, one labelled with Eu^3+-cryptate (donor) and the second with d2 (acceptor). When the dyes are in proximity, the excitation of the donor with a light source (laser or flash lamp) triggers a Fluorescence Resonance Energy Transfer (FRET) towards the acceptor, resulting in specific acceptor fluorescence (at 665 nm). The specific signal is directly proportional to the amount of phospho-ERK1/2 (Thr202/Tyr204) in the sample. Compounds that interfere with the levels of phospho-ERK1/2 (Thr202/Tyr204) will result in a low HTRF signal.
Background: TR-FRET usually uses a lanthanide donor and a delayed reading to cut background.
What is called IC50 is the point on the concentration scale where inhibition reaches its midpoint. `O=C(Nc1ccc(OCCc2ccccc2)cc1)c1cccc(-c2cnc(NCCO)c(C(=O)O)c2)c1` [Example 36, 2-((2-Hydroxyethyl)amino)-5-(3-((4-phenethoxyphenyl)carbamoyl)phenyl)nicotinic acid]: the IC50 is below 1000 nM.

As to `COCCNc1ncc(-c2cccc(C(=O)Nc3ccc(OCCc4ccccc4)cc3)c2)cc1C(=O)O` [Example 37, 2-((2-Methoxyethyl)amino)-5-(3-((4-phenethoxyphenyl)carbamoyl)phenyl)nicotinic acid], the IC50 is below 1000 nM.

For `O=C(Nc1ccc(OCCc2ccccc2)cc1)c1cccc(-c2cnc(NC3CC3)c(C(=O)O)c2)c1` [Example 38, 2-(Cyclopropylamino)-5-(3-((4-phenethoxyphenyl)carbamoyl)phenyl)nicotinic acid], the IC50 is below 1000 nM.

With `Cc1ncc(-c2cccc(C(=O)Nc3ccc(COCc4ccccc4)cc3)c2)cc1C(=O)O` [Example 39, 5-(3-((4-((Benzyloxy)methyl)phenyl)carbamoyl)phenyl)-2-methylnicotinic acid], the IC50 is below 1000 nM.

Take `Cc1ncc(-c2cccc(C(=O)Nc3cccc(COCc4ccccc4)c3)c2)cc1C(=O)O` [Example 40, 5-(3-((3-((Benzyloxy)methyl)phenyl)carbamoyl)phenyl)-2-methylnicotinic acid]: the IC50 fell in the range of 1000 to 10000 nM.

As for `Cc1ncc(-c2cccc(C(=O)Nc3ccc(OCC4CC4)cc3)c2)cc1C(=O)O` [Example 41, 5-(3-((4-(Cyclopropylmethoxy)phenyl)carbamoyl)phenyl)-2-methylnicotinic acid], the half-inhibitory concentration (IC50) is 1000 to 10000 nM.

`Cc1ncc(-c2cccc(C(=O)Nc3ccc(COC4CC4)cc3)c2)cc1C(=O)O` [Example 42, 5-(3-((4-(Cyclopropoxymethyl)phenyl)carbamoyl)phenyl)-2-methylnicotinic acid]: the IC50 lay in the range of 1000 to 10000 nM.

With `Cc1ncc(-c2cccc(C(=O)Nc3ccc(CS(=O)(=O)Cc4ccccc4)cc3)c2)cc1C(=O)O` [Example 43, 5-(3-((4-((Benzylsulfonyl)methyl)phenyl)carbamoyl)phenyl)-2-methylnicotinic acid], the IC50 is 1000 to 10000 nM.

Take `Cc1ncc(-c2cccc(C(=O)Nc3ccc(COCC4CC4)cc3)c2)cc1C(=O)O` [Example 44, 5-(3-((4-((Cyclopropylmethoxy)methyl)phenyl)carbamoyl)phenyl)-2-methylnicotinic acid]: the IC50 lay within 1000 to 10000 nM.

Turning to `O=C(Nc1ccc(COCC2CC2)cc1)c1cccc(-c2cnc(Cl)c(C(=O)O)c2)c1` [Example 45, 2-Chloro-5-(3-((4-((cyclopropylmethoxy)methyl)phenyl)carbamoyl)phenyl)nicotinic acid], the IC50 was in the range of 1000 to 10000 nM.

As for `O=C(Nc1ccc(OCCc2ccccc2)nc1)c1cccc(-c2cccc(C(=O)O)n2)c1` [Example 46, 6-(3-((6-Phenethoxypyridin-3-yl)carbamoyl)phenyl)picolinic acid], the IC50 was 1000 to 10000 nM.

Turning to `Cc1ncc(-c2cccc(C(=O)Nc3ccc(COCc4ccccc4)cc3F)c2)cc1C(=O)O` [Example 47, 5-(3-((4-((Benzyloxy)methyl)-2-fluorophenyl)carbamoyl)phenyl)-2-methylnicotinic acid], the IC50 lay in the range of 1000 to 10000 nM.

As for `O=C(Nc1cccc(-c2cccc(C(=O)O)n2)c1)c1ccc(OCCCCc2ccccc2)cc1` [Example 48, 6-(3-(4-(4-Phenylbutoxy)benzamido)phenyl)picolinic acid], the IC50 was below 1000 nM.

`Cc1ncc(-c2ncc(C(=O)Nc3ccc(COCc4ccccc4)cc3)s2)cc1C(=O)O` [Example 49, 5-(5-((4-((Benzyloxy)methyl)phenyl)carbamoyl)thiazol-2-yl)-2-methylnicotinic acid]: the IC50 fell in the range of 1000 to 10000 nM.

With `Cc1ncc(-c2nc(C(=O)Nc3ccc(COCc4ccccc4)cc3)cs2)cc1C(=O)O` [Example 50, 5-(4-((4-((Benzyloxy)methyl)phenyl)carbamoyl)thiazol-2-yl)-2-methylnicotinic acid], the IC50 is 1000 to 10000 nM.

As for `Cc1ncc(-c2cncc(C(=O)Nc3ccc(OCCc4ccccc4)cc3)c2)cc1C(=O)O` [Example 51, 6-Methyl-5′-((4-phenethoxyphenyl)carbamoyl)-[3,3′-bipyridine]-5-carboxylic acid], the IC50 was in the range of 1000 to 10000 nM.

Turning to `Cc1ncc(-c2ccc(F)c(C(=O)Nc3ccc(COCc4ccccc4)cc3)c2)cc1C(=O)O` [Example 52, 5-(3-((4-((Benzyloxy)methyl)phenyl)carbamoyl)-4-fluorophenyl)-2-methylnicotinic acid], the concentration for half-maximal inhibition (IC50) is below 1000 nM.

As to `Cc1ncc(-c2cc(C(=O)Nc3ccc(OCCc4ccccc4)cc3)ccn2)cc1C(=O)O` [Example 53, 6′-Methyl-4-((4-phenethoxyphenyl)carbamoyl)-[2,3′-bipyridine]-5′-carboxylic acid], the IC50 is below 1000 nM.

Take `Cc1ncc(-c2cncc(C(=O)Nc3ccc(OCCc4ccccc4)cc3)n2)cc1C(=O)O` [Example 54, 2-Methyl-5-(6-((4-phenethoxyphenyl)carbamoyl)pyrazin-2-yl)nicotinic acid]: the IC50 lay in the range of 1000 to 10000 nM.

On to `Cc1ncc(-c2nccc(C(=O)Nc3ccc(OCCc4ccccc4)cc3)n2)cc1C(=O)O` [Example 55, 2-Methyl-5-(4-((4-phenethoxyphenyl)carbamoyl)pyrimidin-2-yl)nicotinic acid], for which the IC50 was 1000 to 10000 nM.

Turning to `Cc1ncc(-c2cccc(C(=O)Nc3ccc(COCc4ccccc4)c(F)c3)c2)cc1C(=O)O` [Example 56, 5-[3-[[4-(Benzyloxymethyl)-3-fluoro-phenyl]carbamoyl]phenyl]-2-methyl-pyridine-3-carboxylic acid], the IC50 is below 1000 nM.

On to `Cc1ncc(-c2cccc(C(=O)Nc3cnn(CCc4ccccc4)c3)c2)cc1C(=O)O` [Example 57, 2-Methyl-5-[3-[[1-(2-phenylethyl)pyrazol-4-yl]carbamoyl]phenyl]pyridine-3-carboxylic acid], for which the IC50 was below 1000 nM.

As for `Cc1ccc(S(=O)(=O)Cc2ccc(NC(=O)c3cccc(-c4cnc(C)c(C(=O)O)c4)c3)cc2)cc1` [Example 58, 2-Methyl-5-[3-[[4-(p-tolylsulfonylmethyl)phenyl]carbamoyl]phenyl]pyridine-3-carboxylic acid], the IC50 is below 1000 nM.

Regarding `Cc1ncc(-c2cccc(C(=O)Nc3ccc(COC(C)c4ccccc4)cc3)c2)cc1C(=O)O` (stereo not drawn) [Example 59, 2-Methyl-5-[3-[[4-(1-phenylethoxymethyl)phenyl]carbamoyl]phenyl]pyridine-3-carboxylic acid], the concentration for half-maximal inhibition (IC50) was below 1000 nM.

`Cc1ncc(-c2cccc(C(=O)Nc3ccc(OC(C)C4CC4)cc3)c2)cc1C(=O)O` (stereo not drawn) [Example 60, 5-[3-[[4-(1-Cyclopropylethoxy)phenyl]carbamoyl]phenyl]-2-methyl-pyridine-3-carboxylic acid]: the IC50 was below 1000 nM.

For the compound `COc1cc(COCc2ccccc2)ccc1NC(=O)c1cccc(-c2cnc(C)c(C(=O)O)c2)c1` [Example 61, 5-[3-[[4-(Benzyloxymethyl)-2-methoxy-phenyl]carbamoyl]phenyl]-2-methyl-pyridine-3-carboxylic acid], the IC50 fell in the range of 1000 to 10000 nM.

As for `Cc1ncc(-c2cccc(C(=O)Nc3ccc(COCc4ccccn4)c(F)c3)c2)cc1C(=O)O` [Example 62, 5-[3-[[3-Fluoro-4-(2-pyridylmethoxymethyl)phenyl]carbamoyl]phenyl]-2-methyl-pyridine-3-carboxylic acid], the IC50 was in the range of 1000 to 10000 nM.

Regarding `COc1ccc(COCc2ccc(NC(=O)c3cccc(-c4cnc(C)c(C(=O)O)c4)c3)cc2F)cc1` [Example 63, 5-[3-[[3-Fluoro-4-[(4-methoxyphenyl)methoxymethyl]phenyl]carbamoyl]phenyl]-2-methyl-pyridine-3-carboxylic acid], the IC50 was below 1000 nM.

Regarding `COc1cccc(COCc2ccc(NC(=O)c3cccc(-c4cnc(C)c(C(=O)O)c4)c3)cc2F)c1` [Example 64, 5-[3-[[3-Fluoro-4-[(3-methoxyphenyl)methoxymethyl]phenyl]carbamoyl]phenyl]-2-methyl-pyridine-3-carboxylic acid], the IC50 is below 1000 nM.

Consider `O=C(O)c1cnc(F)c(-c2cccc(C(=O)Nc3ccc(OCCc4ccccc4)cc3)c2)c1` [Example 65, 6-Fluoro-5-[3-[[4-(2-phenylethoxy)phenyl]carbamoyl]phenyl]pyridine-3-carboxylic acid], for which the IC50 is below 1000 nM.

Take `O=C(O)c1cnc(O)c(-c2cccc(C(=O)Nc3ccc(OCCc4ccccc4)cc3)c2)c1` [Example 66, 6-Hydroxy-5-[3-[[4-(2-phenylethoxy)phenyl]carbamoyl]phenyl]pyridine-3-carboxylic acid]: the IC50 lay within 1000 to 10000 nM.

On to `O=C(O)c1cnnc(-c2cccc(C(=O)Nc3ccc(COCc4ccccc4)cc3)c2)c1` [Example 67, 6-[3-[[4-(Benzyloxymethyl)phenyl]carbamoyl]phenyl]pyridazine-4-carboxylic acid], for which the IC50 was below 1000 nM.

For the compound `Cc1ncc(-c2cccc(C(=O)Nc3ccc(COCc4ccccc4)cc3)c2)nc1C(=O)O` [Example 68, 6-[3-[[4-(Benzyloxymethyl)phenyl]carbamoyl]phenyl]-3-methyl-pyrazine-2-carboxylic acid], the 50% inhibitory concentration (IC50) is below 1000 nM.
